Data set [1] can be described thus: drug cytotoxicity in Vero cells (CPE-inhibition assay). The note with it: monkey, vero cells, MTC (minimum drug concentration causing any cytotoxicity), Vero.
In another data set the test system is Vero cells. The data set is described as above. The note with it: Vero.
The test system of data set [2] is Herpes simplex type 2 (HSV-2) strain MS. Put plainly: CPE-inhibition assay, HSV-2 strain MS in Vero cells. The note with it: for TI (Therapeutic Index, MTC/ID50) / VR (Virus Rating): HSV-2 (MS), Vero; for EC50: Human alphaherpesvirus 2, Vero, read-out: ID50 (minimum drug concentration that inhibited the CPE by 50%), HSV-2 (MS), Vero; for VR (Virus Rating): >1.0 definite, 0.5-0.9 marginal to moderate, <0.5 no significant activity.

Data set [3] relates to Herpes simplex type 1 (HSV-1) strain E-377. Put plainly: CPE-inhibition assay, HSV-1 strain E-377 in Vero cells. To be noted: for TI (Therapeutic Index, MTC/ID50) / VR (Virus Rating): HSV-1 (E-377), Vero; for EC50: Human alphaherpesvirus 1, Vero, read-out: ID50 (minimum drug concentration that inhibited the CPE by 50%), HSV-1 (E-377), Vero; for VR (Virus Rating): >1.0 definite, 0.5-0.9 marginal to moderate, <0.5 no significant activity.

Data set [4] can be described thus: cytotoxicity in ATH8 cells (method of Mitsuya and Broder). It is filed as cell-based. To be noted: human, HIV-1 experiment. An excerpt:
The method of Mitsuya and Broder (AIDS: Modern Concepts and Therapeutic Challenges; Broder, S. ED.; Marcel Dekker, Inc.; New York, 1987; Chapter 18) was used to determine the in vitro anti-HIV-1 and anti-HIV-2 activity in ATH8 cells of some compounds of the invention. […]

In data set [5] the test system is Human Immunodeficiency Virus (HIV-1). Kind of data set: anti-HIV-1 protection of ATH8 cells (method of Mitsuya and Broder). To be noted: Human immunodeficiency virus 1, ATH-8, HIV-1, ATH8 cells, read-out: Protective Effect. It is filed as cell-based. The source says:
The method of Mitsuya and Broder (AIDS: Modern Concepts and Therapeutic Challenges; Broder, S. ED.; Marcel Dekker, Inc.; New York, 1987; Chapter 18) was used to determine the in vitro anti-HIV-1 and anti-HIV-2 activity in ATH8 cells of some compounds of the invention. The results of the test are expressed as the percentage of ATH8 cells that were protected from the cytopathogenic effects of HIV at various concentrations of the compound of the invention.

Data set [6] has as its system P388D1: Lymphocytic Leukemia. Put plainly: cytotoxic activity against cultured tumor cells, P388-D1. The note with it: Mus musculus, P388D1, 72 h; P388-D1, 3 days, MTT. It is filed as cell-based.
The test system of data set [7] is Human Cytomegalovirus (HCMV). Kind of data set: HCMV virus yield reduction assay in MRC5 cells. It counts as cell-based, Human cytomegalovirus (strain AD169). On the procedure:
(§1) Human diploid embryonic lung (MRC5) cells were grown in 35 mm wells of 6-well tissue culture plates. Subconfluent cell monolayers were rinsed with phosphate buffered saline (PBS) and were exposed to 0.5 ml/well of HCMV (strain AD169) suspension for 1.5 hours at 37° C. The virus suspension was diluted in MEM+2% fetal bovine serum (FBS) to yield a multiplicity of infection (MOI) of approximately 0.1 plaque forming units (PFU)/cell. Following the virus adsorption period, the inocula were removed and infected cell layers were rinsed with PBS. Aliquots (2.0 ml) of each test drug concentration (dissolved in MEM supplemented with 2% FBS) were dispensed into triplicate cell cultures: two virus infected cultures and one uninfected cytotoxicity control culture (exposed to medium without virus for 1.5 hours). Untreated virus infected control cultures and untreated, uninfected cell control cultures were fed with medium alone.
(§2) All cell culture fluids were replaced with fresh drug and medium 48 hours postinfection (p.i.).
On Day 6 p.i., the cell layers were examined microscopically for cytopathogenic effect (CPE) and drug cytotoxicity. The test and virus control cultures were then harvested by subjecting the cell layers to one cycle of freeze-thawing.
The harvested test and virus control samples were thawed and the infectious virus yield was determined by plaque assay in MRC5 cells grown in 12-well cluster plates. Inhibition of HCMV replication by each test compound was determined by comparing the progeny virus yields in the drug-treated cultures with the progeny virus yield in the untreated, virus infected control cultures.

The nature of data set [8]: MTT cytotoxicity assay in MRC5 cells. To be noted: human. It counts as cell-based. How it is done: as §1, §2
Drug cytotoxicity was determined quantitatively by a method based on the reduction of the tetrazolium salt, 3-(4,5-dimethyl-thiazol-2-yl)-2,5-diphenyl tetrazolium bromide (MTT) by mitochondrial enzymes of viable host cells to MTT formazan (T. Mosmann, 1983). Drug cytotoxicity controls and cell controls were treated with MTT (dissolved in culture medium) followed by 20% SDS (in 0.02 N HCl) to dissolve the crystals of MTT formazan. The blue color of the MTT formazan was measured spectrophotometrically at 570 nm. Drug cytotoxicity was determined by comparing the absorbance (O.D.) of each drug cytotoxicity control with the mean O.D. of the cell control cultures and expressed as percent of control.

The next data set relates to A549: Lung carcinoma. Kind of data set: cytotoxic activity against cultured tumor cells, A549. It is filed as cell-based. The note with it: Homo sapiens, 72 h; A549, 3 days, MTT.
Data set [9] deals with HCT8: Adenocarcinoma, ileocecal. Kind of data set: cytotoxic activity against cultured tumor cells, HCT-8. The note with it: Homo sapiens, 72 h; HCT-8, 3 days, MTT. It is filed as cell-based.

Values after ≈ are worked out from the molar mass of the structure shown. Values joined by “and” are separate entries in the source; they are usually repeats but may differ in a detail not shown here. Equal values may be shown once. Where a name gives a salt, the structure may show the parent alone. Where only a bound is given, the exact number is not on record here.

As for `Nc1nc(Cl)c2ncn(C3CC(CO)C3CO)c2n1` (centres unmarked) [Example 1H, 3-(2'-Amino-6'-chloro-9'H-purin-9'-yl)-1,2-bis(hydroxymethyl)cyclobutane], the MCC in data set [1] (HSV-1 (E-377) experiment) and in [1] (HSV-2 (MS) experiment) was 320 µg/mL each time. The “MTC (minimum drug concentration causing any cytotoxicity)” value with Vero cells (HSV-1 (E-377) experiment) and with Vero cells (HSV-2 (MS) experiment) was 320 µg/mL throughout. Further, the “TI (Therapeutic Index, MTC/ID50)” value in data set [2] (listed as 1.5H) was 1.8 and 1.5; in [3] (listed as 1.5H), 3.9 and 3.6. In addition, the values for the EC50 in data set [2] and in [3] were 179 µg/mL (≈ 631 µM) and 83 µg/mL (≈ 293 µM), respectively.
With `Nc1ccn(C2CC(CO)C2CO)c(=O)n1` (centres unmarked) [Example 3, 1-(2',3'-Bis(hydroxymethyl)cyclobutyl)cytosine], the MCC in data set [1] (HSV-1 (E-377) experiment) and in data set [1] (HSV-2 (MS) experiment) was 320 µg/mL each time. The figures for the “TI (Therapeutic Index, MTC/ID50)” value in [2] and in data set [3] were 6.34 and 31.8, respectively. For the same compound, the “VR (Virus Rating)” value worked out at 2.0 in data set [2] and 3.6 in [3]. For the same compound, the EC50 in data set [2] worked out at 50.5 µg/mL (≈ 224 µM); in data set [3], 10.1 µg/mL (≈ 44.7 µM).
Turning to `Nc1nc(N)c2ncn(C3CC(CO)C3CO)c2n1` (centres unmarked) [Example 6, 3-(2',6'-Diamino 9'H-purin-9'-yl)-1,2-bis(hydroxymethyl)cyclobutane], the cytotoxicity at 1 µM in data set [4] (1 uM) amounted to 0%. In data set [4] (10 uM), the cytotoxicity at 10 µM was 4%. In data set [4] (100 uM), this compound registered a cytotoxicity at 100 µM of 32%. The compound further returned a cytotoxicity at 500 µM in [4] (500 uM) of 38%. Also, in [5] (1 uM), the inhibition at 1 µM is 21%. Further, the inhibition at 10 µM in [5] (10 uM) amounted to 48%. For the same compound, the inhibition at 100 µM in data set [5] (100 uM) stood at 46%. In [5] (500 uM), the inhibition at 500 µM amounted to 57%. The MCC in data set [1] (HSV-1 (E-377) experiment) and in data set [1] (HSV-2 (MS) experiment) was 320 µg/mL each time. The “TI (Therapeutic Index, MTC/ID50)” value was 4.5 in data set [2] and 10.1 in data set [3]. Besides, the “VR (Virus Rating)” value in data set [2] amounted to 1.6; in [3] it was 2.4. Also, the EC50 turned out to be 71.8 µg/mL (≈ 272 µM) in [2] and 31.7 µg/mL (≈ 120 µM) in data set [3].
Compound `Nc1ncc2ncn(C3CC(CO)C3CO)c2n1` (centres unmarked) [Example 7, 3-(2'-Amino-9'H-purin-9'-yl)-1,2-bis(hydroxymethyl)cyclobutane] returned an MCC in data set [1] (HSV-1 (E-377) experiment) of 320 µg/mL. For the same compound, in data set [3], the “TI (Therapeutic Index, MTC/ID50)” value came out at 1.2; the “VR (Virus Rating)” value is on record as 0.55; the EC50 turned out to be 271 µg/mL (≈ 1090 µM).
With `OCC1CC(n2cnc3c(Cl)ncnc32)C1` (centres unmarked) [Example 8E, 3-(6'-chloro-9'H-purin-9'-yl)cyclobutanemethanol], the MCC in [1] (HSV-1 (E-377) experiment) came out at 320 µg/mL. This compound came in with an MCC in data set [1] (HSV-2 (MS) experiment) of 100 µg/mL. Also, in data set [2], the “TI (Therapeutic Index, MTC/ID50)” value was found to be 1.8; the “VR (Virus Rating)” value is given as 1.35; the EC50 amounted to 54.7 µg/mL (≈ 229 µM). In addition, in data set [3], the “VR (Virus Rating)” value came out at 0.9.
`CC(=O)OCC1CC(n2cnc3c(=O)[nH]c(N)nc32)C1COC(C)=O` (centres unmarked) [Example 20, 9-(2,'3,'-Bis(acetoxymethyl)cyclobutyl)guanine] showed an MCC in data set [1] (HSV-1 (E-377) experiment) of 100 µg/mL. In data set [1] (HSV-2 (MS) experiment), the MCC was 100 µg/mL. Also, in [2], the “TI (Therapeutic Index, MTC/ID50)” value is recorded as 6.4; the “VR (Virus Rating)” value is 1.9; the EC50 stood at 15.7 µg/mL (≈ 44.9 µM). Moreover, in data set [3], the “TI (Therapeutic Index, MTC/ID50)” value was found to be 8.2; the “VR (Virus Rating)” value is on record as 2.2; the EC50 stood at 12.1 µg/mL (≈ 34.6 µM).
With `NCC1CC(n2cnc3c(Cl)ncnc32)C1` (centres unmarked) [Example 21, 3-(6'-Chloro-9'H-purin-9'-yl)-aminomethylcyclobutane hydrochloride], the MCC in data set [1] (HSV-1 (E-377) experiment) turned out to be 320 µg/mL. The MCC in [1] (HSV-2 (MS) experiment) was 320 µg/mL. In [2], the “TI (Therapeutic Index, MTC/ID50)” value came out at 4.3; the “VR (Virus Rating)” value stood at 1.2; the EC50 came out at 75 µg/mL. Besides, in data set [3], the “TI (Therapeutic Index, MTC/ID50)” value is on record as 3.6; the “VR (Virus Rating)” value is listed as 1.0; the EC50 came out at 88 µg/mL.
`Nc1nc2c(nc(Br)n2C2CC(CO)C2CO)c(=O)[nH]1` (centres unmarked) [Example 23] returned an MCC in [1] (HSV-1 (E-377) experiment) above 320 µg/mL. This compound also showed an MCC in [1] (HSV-2 (MS) experiment) above 320 µg/mL. For the same compound, in [2], the “VR (Virus Rating)” value was 0.7. Moreover, in data set [3], the “TI (Therapeutic Index, MTC/ID50)” value amounted to 3.2; the “VR (Virus Rating)” value was determined as 1.7; the EC50 was 100 µg/mL (≈ 291 µM).
Turning to `OCC1CC(n2ccc3c(Cl)ncnc32)C1CO` (centres unmarked) [Example 67B, 4-Chloro-7-(2',3'-bis(hydroxymethyl)cyclobutyl)-7H-pyrrolo[2,3-d]pyrimidine], the half-inhibitory concentration (IC50) in data set [6] worked out at 4.9 µg/mL (≈ 18.3 µM); in the data set with A549: Lung carcinoma, 18.8 µg/mL (≈ 70.2 µM); in data set [9], 0.63 µg/mL (≈ 2.35 µM). Also, the HCMV yield in data set [7] (3.2 ug/ml) was 4.9 log10 PFU/ml; in [7] (10 ug/ml) it was 4.0 log10 PFU/ml; in data set [7] (32 ug/ml), 3.1 log10 PFU/ml. The same compound returned a log reduction at 3.2 µg/mL in [7] (Human betaherpesvirus 5, 144 h, 3.2 ug/ml) of 0.4. The log reduction at 10 µg/mL in data set [7] (Human betaherpesvirus 5, 144 h, 10 ug/ml) stood at 1.3. The compound also returned a log reduction at 32 µg/mL in data set [7] (Human betaherpesvirus 5, 144 h, 32 ug/ml) of 2.2. Moreover, the viability was determined as 86% in data set [8] (10 ug/ml) and 68% in [8] (32 ug/ml).
With `OCC1CC(n2cc(Br)c3c(Cl)ncnc32)C1CO` (centres unmarked) [Example 67C], the IC50 came out at 16.4 µg/mL (≈ 47.3 µM) in data set [6], 18.4 µg/mL (≈ 53.1 µM) in the data set on A549: Lung carcinoma and 4.3 µg/mL (≈ 12.4 µM) in data set [9]. The MCC in data set [1] (HSV-1 (E-377) experiment) and in data set [1] (HSV-2 (MS) experiment) was 32 µg/mL throughout. Besides, the entries for the “TI (Therapeutic Index, MTC/ID50)” value in data set [2] and in data set [3] were 2.1 and 2.9, respectively. The “VR (Virus Rating)” value was determined as 0.9 in data set [2] and 1.2 in data set [3]. Moreover, the EC50 in data set [2] is 14.9 µg/mL (≈ 43 µM); in data set [3] it was 11.1 µg/mL (≈ 32 µM).
Take `Nc1ncnc2c1c(Br)cn2C1CC(CO)C1CO` (centres unmarked) [Example 67F, 4-Amino-9-bromo-7-(2',3'-bis(hydroxymethyl)cyclobutyl)-7H-pyrrolo[2,3-d]pyrimidine]: the IC50 in data set [6] was found to be 5.2 µg/mL (≈ 15.9 µM); in the data set with A549: Lung carcinoma, 3.1 µg/mL (≈ 9.47 µM); in data set [9], 5.9 µg/mL (≈ 18 µM).

A word on the IC50: it is the concentration at which inhibition is half-maximal. A high value points to weaker potency. One may read the viability as the share of living cells, or the viability signal relative to a control. Higher therefore signals better survival.

The record behind these values is patent US5153352A, “Process for preparation of intermediates of carbocyclic nucleoside analogs” (priority 1990, dated 1992).
